Earlier results as cited in patent US6811791B2, “Method and concentrated composition for insect and animal control” (priority 2001, dated 2004).

Settings: classified by the EPA

## CNC(=O)CSP(=S)(OC)OC [Dimethoate, dimethoate]
  EPA carcinogen classification: group 3 carcinogen
